Measurements published in patent US20090030024A1, “THIAZOLES AS FUNGICIDES” (priority 2005, published 2009).
Read-outs that look alike come from different tables or passages of the source. Marks after values point to notes of the source that are not given here.

Assay: logP determination by retention times (calibration with alkan-2-ones)
Conditions: for logP: HPLC, reversed-phase C 18, EEC Directive 79/831 Annex V.A8, method *: 40° C., 0.1% aqueous formic acid and acetonitrile, linear gradient 10% to 95% acetonitrile

COCc1nc(C)c(-c2ccnc(Nc3ccc(N(C)C)c(Cl)c3)n2)s1 [Example 65, 2-chloro-N4-{4-[2-(methoxymethyl)-4-methyl-1,3-thiazol-5-yl]pyrimidin-2-yl}-N1,N1-dimethylbenzene-1,4-diamine] showed a chromatographic logP of 2.04.

For COCCOC(=O)Nc1ccc(Nc2nccc(-c3sc(C4CC4)nc3C)n2)cc1 [Example 71, 2-methoxyethyl-(4-{[4-(2-cyclopropyl-4-methyl-1,3-thiazol-5-yl)pyrimidin-2-yl]amino}phenyl)carbamate], the chromatographic logP was 2.51.

Molecule COCCOC(=O)Nc1ccc(Nc2nccc(-c3sc(C(C)C)nc3C)n2)cc1 [Example 74, 2-methoxyethyl-(4-{[4-(2-isopropyl-4-methyl-1,3-thiazol-5-yl)pyrimidin-2-yl]amino}phenyl)carbamate] has a chromatographic logP of 2.67.

With Cc1nc2c(s1)-c1nc(Nc3cccc([N+](=O)[O-])c3)ncc1CC2 [Example 95, 2-Methyl-N-(3-nitrophenyl)-4,5-dihydro[1,3]thiazolo[4,5-h]quinazoline-8-amine] the chromatographic logP was 2.79 and the chromatographic logP (logP(HCOOH), HCOOH) was 2.79.

Work on COCc1nc(C)c(-c2ccnc(Nc3cccc(O)c3)n2)s1 [Example 101, 3-({4-[2-(methoxymethyl)-4-methyl-1,3-thiazol-5-yl]pyrimidin-2-yl}amino)phenol] yielded a chromatographic logP of 1.97.

With Cc1nc(NC(C)(C)C)sc1-c1ccnc(Nc2cccc(O)c2)n1 [Example 102, 3-({4-[2-(tert-butylamine)-4-methyl-1,3-thiazol-5-yl]pyrimidin-2-yl}amino)phenol] the logP was 1.82*.

For Cc1nc(C(F)(F)F)c(-c2ccnc(Nc3cccc(O)c3)n2)s1 [Example 103, 3-({4-[2-methyl-4-(trifluoromethyl)-1,3-thiazol-5-yl]pyrimidin-2-yl}amino)phenol], the chromatographic logP was 2.52.

In the case of Cc1nc2c(s1)-c1nc(Nc3cccc(O)c3)ncc1CC2 [Example 126, 3-[(2-methyl-4,5-dihydro[1,3]thiazole[4,5-h]quinazolin-8-yl)amino]phenol], the logP is reported as 1.77*.

Molecule COCC(C)Nc1nc(C)c(-c2ccnc(Nc3cccc(O)c3)n2)s1 (centres unmarked) [Example 129, 3-[(4-{2-[(2-methoxy-1-methylethyl)amino]-4-methyl-1,3-thiazol-5-yl}pyrimidin-2-yl)amino]phenol] has a chromatographic logP of 1.53.

Cc1nc(C)c(-c2ccnc(Nc3cccc(O)c3)n2)s1 [Example 141, 3-{[4-(2,4-dimethyl-1,3-thiazol-5-yl)pyrimidin-2-yl]amino}phenol] showed a chromatographic logP of 1.84.

Molecule Cc1nc(C2CCCCC2)sc1-c1ccnc(Nc2cccc(C(=O)O)c2)n1 [Example 145, 3-{[4-(2-cyclohexyl-4-methyl-1,3-thiazol-5-yl)pyrimidin-2-yl]amino}benzoic acid] has a chromatographic logP of 3.27.

In the case of Cc1nc(C2CCCCC2)sc1-c1ccnc(Nc2cccc(O)c2)n1 [Example 146, 3-{[4-(2-cyclohexyl-4-methyl-1,3-thiazol-5-yl)pyrimidin-2-yl]amino}phenol], the chromatographic logP is reported as 3.33.

In the case of Cc1nc(C2CC2)sc1-c1ccnc(Nc2cccc(C(=O)O)c2)n1 [Example 147, 3-{[4-(2-cyclopropyl-4-methyl-1,3-thiazol-5-yl)pyrimidin-2-yl]amino}benzoic acid], the chromatographic logP is reported as 2.27.

In the case of Cc1nc(C2CC2)sc1-c1ccnc(Nc2cccc(O)c2)n1 [Example 148, 3-{[4-(2-cyclopropyl-4-methyl-1,3-thiazol-5-yl)pyrimidin-2-yl]amino}phenol], the chromatographic logP is reported as 2.24.

CCc1nc(C)c(-c2ccnc(Nc3cccc(O)c3)n2)s1 [Example 150, 3-{[4-(2-ethyl-4-methyl-1,3-thiazol-5-yl)pyrimidin-2-yl]amino}phenol] gave a chromatographic logP of 2.12.

Work on COCc1nc(C)c(-c2ccnc(Nc3ccc(C#N)cc3)n2)s1 [Example 179, 4-({4-[2-(methoxymethyl)-4-methyl-1,3-thiazol-5-yl]pyrimidin-2-yl}amino)benzonitrile] yielded a chromatographic logP of 2.57.

In the case of Cc1nc(NC(C)(C)C)sc1-c1ccnc(Nc2ccc(O)cc2)n1 [Example 180, 4-({4-[2-(tert-butylamine)-4-methyl-1,3-thiazol-5-yl]pyrimidin-2-yl}amino)phenol], the logP is reported as 1.67*.

For COc1cccc(Nc2nccc(-c3sc(C)nc3C)n2)c1 [Example 183, 4-(2,4-dimethyl-1,3-thiazol-5-yl)-N-(3-methoxyphenyl)pyrimidine-2-amine], the chromatographic logP was 2.64.

Molecule Cc1nc(C)c(-c2ccnc(Nc3cccc([N+](=O)[O-])c3)n2)s1 [Example 184, 4-(2,4-dimethyl-1,3-thiazol-5-yl)-N-(3-nitrophenyl)pyrimidine-2-amine] has a chromatographic logP of 2.61.

Work on Cc1nc(C)c(-c2ccnc(Nc3ccc(F)c(C)c3)n2)s1 [Example 185, 4-(2,4-dimethyl-1,3-thiazol-5-yl)-N-(4-fluoro-3-methylphenyl)pyrimidine-2-amine] yielded a chromatographic logP of 3.07.

COc1ccc(Nc2nccc(-c3sc(C)nc3C)n2)cn1 [Example 187, 4-(2,4-dimethyl-1,3-thiazol-5-yl)-N-(6-methoxypyridin-3-yl)pyrimidine-2-amine] gave a chromatographic logP of 2.09.

Cc1nc(C)c(-c2ccnc(Nc3cccc(C(F)(F)F)c3)n2)s1 [Example 188, 4-(2,4-dimethyl-1,3-thiazol-5-yl)-N-[3-(trifluoromethyl)phenyl]pyrimidine-2-amine] showed a chromatographic logP of 3.3.

With Cc1nc(C)c(-c2ccnc(Nc3ccc(C(F)(F)F)cc3)n2)s1 [Example 189, 4-(2,4-dimethyl-1,3-thiazol-5-yl)-N-[4-(trifluoromethyl)phenyl]pyrimidine-2-amine] the chromatographic logP was 3.56.

With COc1ccc(Nc2nccc(-c3sc(N)nc3C)n2)cc1OC [Example 202, 4-(2-amino-4-methyl-1,3-thiazol-5-yl)-N-(3,4-dimethoxyphenyl)pyrimidine-2-amine] the chromatographic logP was 1.28.

In the case of Cc1nc(N)sc1-c1ccnc(Nc2cccc(Cl)c2)n1 [Example 204, 4-(2-amino-4-methyl-1,3-thiazol-5-yl)-N-(3-chlorophenyl)pyrimidine-2-amine], the chromatographic logP is reported as 1.78.

For Cc1nc(N)sc1-c1ccnc(Nc2cccc([N+](=O)[O-])c2)n1 [Example 206, 4-(2-amino-4-methyl-1,3-thiazol-5-yl)-N-(3-nitrophenyl)pyrimidine-2-amine], the chromatographic logP was 1.5.

Cc1cc(Nc2nccc(-c3sc(N)nc3C)n2)ccc1F [Example 207, 4-(2-amino-4-methyl-1,3-thiazol-5-yl)-N-(4-fluoro-3-methylphenyl)pyrimidine-2-amine] gave a chromatographic logP of 1.68.

With Cc1nc(N)sc1-c1ccnc(Nc2ccc(F)cc2)n1 [Example 208, 4-(2-amino-4-methyl-1,3-thiazol-5-yl)-N-(4-fluorophenyl)pyrimidine-2-amine] the chromatographic logP was 1.56.

In the case of Cc1nc(N)sc1-c1ccnc(Nc2cccc(C(F)(F)F)c2)n1 [Example 209, 4-(2-amino-4-methyl-1,3-thiazol-5-yl)-N-[3-(trifluoromethyl)phenyl]pyrimidine-2-amine], the chromatographic logP is reported as 1.97.

COc1cc(Nc2nccc(-c3sc(C4CCCCC4)nc3C)n2)cc(OC)c1OC [Example 215, 4-(2-cyclohexyl-4-methyl-1,3-thiazol-5-yl)-N-(3,4,5-trimethoxyphenyl)pyrimidine-2-amine] showed a chromatographic logP of 3.97.

Cc1nc(C2CCCCC2)sc1-c1ccnc(Nc2cccc([N+](=O)[O-])c2)n1 [Example 216, 4-(2-cyclohexyl-4-methyl-1,3-thiazol-5-yl)-N-(3-nitrophenyl)pyrimidine-2-amine] gave a chromatographic logP of 4.63 and a chromatographic logP (logP(HCOOH), HCOOH) of 4.63.

With COc1ccc(Nc2nccc(-c3sc(C4CCCCC4)nc3C)n2)cn1 [Example 217, 4-(2-cyclohexyl-4-methyl-1,3-thiazol-5-yl)-N-(6-methoxypyridin-3-yl)pyrimidine-2-amine] the chromatographic logP was 3.86.

Cc1nc(C2CCCCC2)sc1-c1ccnc(Nc2ccc(C(F)(F)F)cc2)n1 [Example 218, 4-(2-cyclohexyl-4-methyl-1,3-thiazol-5-yl)-N-[4-(trifluoromethyl)phenyl]pyrimidine-2-amine] gave a chromatographic logP of 5.62.

Work on Cc1nc(C2CCCCC2)sc1-c1ccnc(Nc2ccccc2)n1 [Example 219, 4-(2-cyclohexyl-4-methyl-1,3-thiazol-5-yl)-N-phenylpyrimidine-2-amine] yielded a chromatographic logP of 4.65.

For Cc1nc(C2CC2)sc1-c1ccnc(Nc2ccc3c(c2)OCCO3)n1 [Example 220, 4-(2-cyclopropyl-4-methyl-1,3-thiazol-5-yl)-N-(2,3-dihydro-1,4-benzodioxin-6-yl)pyrimidine-2-amine], the chromatographic logP was 2.91.

COc1ccc(OC)c(Nc2nccc(-c3sc(C4CC4)nc3C)n2)c1 [Example 221, 4-(2-cyclopropyl-4-methyl-1,3-thiazol-5-yl)-N-(2,5-dimethoxyphenyl)pyrimidine-2-amine] gave a chromatographic logP of 3.71.

COc1ccc(Nc2nccc(-c3sc(C4CC4)nc3C)n2)cc1OC [Example 223, 4-(2-cyclopropyl-4-methyl-1,3-thiazol-5-yl)-N-(3,4-dimethoxyphenyl)pyrimidine-2-amine] showed a chromatographic logP of 2.6.

In the case of COc1cccc(Nc2nccc(-c3sc(C4CC4)nc3C)n2)c1 [Example 224, 4-(2-cyclopropyl-4-methyl-1,3-thiazol-5-yl)-N-(3-methoxyphenyl)pyrimidine-2-amine], the chromatographic logP is reported as 3.28.

Cc1nc(C2CC2)sc1-c1ccnc(Nc2cccc([N+](=O)[O-])c2)n1 [Example 225, 4-(2-cyclopropyl-4-methyl-1,3-thiazol-5-yl)-N-(3-nitrophenyl)pyrimidine-2-amine] gave a chromatographic logP of 3.29.

Cc1cc(Nc2nccc(-c3sc(C4CC4)nc3C)n2)ccc1F [Example 226, 4-(2-cyclopropyl-4-methyl-1,3-thiazol-5-yl)-N-(4-fluoro-3-methylphenyl)pyrimidine-2-amine] gave a chromatographic logP of 3.71.

Cc1nc(C2CC2)sc1-c1ccnc(Nc2ccc(F)cc2)n1 [Example 227, 4-(2-cyclopropyl-4-methyl-1,3-thiazol-5-yl)-N-(4-fluorophenyl)pyrimidine-2-amine] gave a chromatographic logP of 3.31.

Molecule COc1ccc(Nc2nccc(-c3sc(C4CC4)nc3C)n2)cn1 [Example 228, 4-(2-cyclopropyl-4-methyl-1,3-thiazol-5-yl)-N-(6-methoxypyridin-3-yl)pyrimidine-2-amine] has a chromatographic logP of 2.53.
